# In patent US20250228239A1, “MOLECULES HAVING PESTICIDAL UTILITY, AND INTERMEDIATES, COMPOSITIONS, AND PROCESSES, RELATED THERETO” (priority 2024, published 2025):
# Columns and labels:
# [1] = tested on: Cabbage Looper (Trichoplusia ni, TRIPNI); experiment: Bioassays on Cabbage Looper (CL), 128-well diet tray assay; type: in vivo; settings: Trichoplusia ni; Table ABC: Biological Results; species CL; read-out: CL
# In short: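 Each of eight wells receives artificial diet treated at 50 μg/cm^2 with the test molecule, then one to five second-instar larvae. Incubation runs five to seven days at 25° C with a 14:10 light-dark cycle under vented covers. Mortality is scored per well as a percentage and averaged.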
# [2] = tested on: Beet Armyworm (Spodoptera exigua, LAPHEG); experiment: Bioassays on Beet Armyworm (BAW), 128-well diet tray assay; type: in vivo; settings: Spodoptera exigua; Table ABC: Biological Results; species BAW; read-out: BAW
# In short: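 Test molecule was dissolved in 90:10 acetone-water and applied at 50 μg/cm^2 onto artificial diet in eight wells, then dried. Second instar larvae, one to five per well, were added, and trays were kept vented at 25° C. with a 14:10 photoperiod for five to seven days before mortality was recorded.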
Structure (SMILES),pest or weed control at 50 µg/cm2 [1] [%],pest or weed control at 50 µg/cm2 [2] [%]
"Cc1cc(C2C(C(=O)Nc3ccc(Cl)c(C(=O)Nc4ccc(F)c(N)c4F)c3)C2(Cl)Cl)cc(C(F)(F)F)c1F (stereo not drawn) [F1069, cis-N-(3-Amino-2,4-difluorophenyl)-2-chloro-5-((cis)-2,2-dichloro-3-(4-fluoro-3-methyl-5-(trifluoromethyl)phenyl)cyclopropane-1-carboxamido)benzamide]",50 to 100,50 to 100
"O=C(Nc1cccc(F)c1[N+](=O)[O-])c1cc(NC(=O)[C@H]2[C@H](c3ccc(F)c(Cl)c3)C2(Cl)Cl)ccc1Cl [F1081, 2-Chloro-5-((1R,3R)-2,2-dichloro-3-(3-chloro-4-fluorophenyl)cyclopropane-1-carboxamido)-N-(3-fluoro-2-nitrophenyl)benzamide]",50 to 100,50 to 100
"Cc1cc(F)c(NC(=O)c2cc(NC(=O)[C@H]3[C@H](c4ccc(F)c(Cl)c4)C3(Cl)Cl)ccc2Cl)cc1[N+](=O)[O-] [F1082, 2-Chloro-5-((1R,3R)-2,2-dichloro-3-(3-chloro-4-fluorophenyl)cyclopropane-1-carboxamido)-N-(2-fluoro-4-methyl-5-nitrophenyl)benzamide]",50 to 100,50 to 100
"CC(=O)Nc1c(F)ccc(NC(=O)c2cc(NC(=O)[C@H]3[C@H](c4ccc(Cl)c(Cl)c4)C3(Cl)Cl)ccc2Cl)c1F [F1083, N-(3-acetamido-2,4-difluorophenyl)-2-chloro-5-((1R,3R)-2,2-dichloro-3-(3,4-dichlorophenyl)cyclopropane-1-carboxamido)benzamide]",50 to 100,50 to 100
"Nc1c(F)ccc(NC(=O)c2cc(NC(=O)C3C(c4cc(F)cc(Br)c4F)C3(Cl)Cl)ccc2Cl)c1F (stereo not drawn) [F1097, cis-(3-Amino-2,4-difluorophenyl)-5-(3-(3-bromo-2,5-difluorophenyl)-2,2-dichlorocyclopropane-1-carboxamido)-2-chlorobenzamide]",50 to 100,50 to 100
O=C(Nc1ccc(F)cc1NC(=O)C(Cl)(Cl)Cl)c1cc(NC(=O)C2C(c3ccc(Cl)c(Cl)c3)C2(Cl)Cl)ccc1Cl (stereo not drawn) [F1126],50 to 100,50 to 100
"Nc1c(F)cccc1NC(=O)c1cc(NC(=O)[C@H]2[C@H](c3ccc(F)c(Cl)c3)C2(Cl)Cl)ccc1Cl [F1133, N-(2-Amino-3-fluorophenyl)-2-chloro-5-((1R,3R)-2,2-dichloro-3-(3-chloro-4-fluorophenyl)cyclopropane-1-carboxamido)benzamide]",50 to 100,50 to 100
"Nc1cc(F)c(F)cc1NC(=O)c1cc(NC(=O)[C@H]2[C@H](c3ccc(F)c(Cl)c3)C2(Cl)Cl)ccc1Cl [F1134, N-(2-Amino-4,5-difluorophenyl)-2-chloro-5-((1R,3R)-2,2-dichloro-3-(3-chloro-4-fluorophenyl)cyclopropane-1-carboxamido)benzamide]",50 to 100,50 to 100
"Cc1cc(F)c(NC(=O)c2cc(NC(=O)[C@H]3[C@H](c4ccc(F)c(Cl)c4)C3(Cl)Cl)ccc2Cl)cc1N [F1135, N-(5-Amino-2-fluoro-4-methylphenyl)-2-chloro-5-((1R,3R)-2,2-dichloro-3-(3-chloro-4-fluorophenyl)cyclopropane-1-carboxamido)benzamide]",50 to 100,50 to 100
"CC(=O)OCCNc1ccc(NC(=O)c2cc(NC(=O)[C@H]3[C@H](c4ccc(F)c(C(F)(F)F)c4)C3(Cl)Cl)ccc2Cl)c(C)c1 [F1144, 2-((4-(2-Chloro-5-((1R,3R)-2,2-dichloro-3-(4-fluoro-3-(trifluoromethyl)phenyl)cyclopropane-1-carboxamido)benzamido)-3-methylphenyl)amino)ethyl acetate]",50 to 100,50 to 100
"Cc1cc(NCCO)ccc1NC(=O)c1cc(NC(=O)[C@H]2[C@H](c3ccc(F)c(C(F)(F)F)c3)C2(Cl)Cl)ccc1Cl [F1145, 2-Chloro-5-((1R,3R)-2,2-dichloro-3-(4-fluoro-3-(trifluoromethyl)phenyl)cyclopropane-1-carboxamido)-N-(4-((2-hydroxyethyl)amino)-2-methylphenyl)benzamide]",50 to 100,50 to 100
"O=C(Nc1c(F)ccc(NC(=O)c2cc(NC(=O)[C@H]3[C@H](c4ccc(F)c(C(F)(F)F)c4)C3(Cl)Cl)ccc2Cl)c1F)c1ccccc1 [F1179, N-(3-Benzamido-2,4-difluorophenyl)-2-chloro-5-((1R,3R)-2,2-dichloro-3-(4-fluoro-3-(trifluoromethyl)phenyl)cyclopropane-1-carboxamido)benzamide]",50 to 100,50 to 100
"O=C(Nc1c(F)ccc(NC(=O)c2cc(NC(=O)[C@H]3[C@H](c4ccc(F)c(C(F)(F)F)c4)C3(Cl)Cl)ccc2Cl)c1F)c1ccc(F)cc1 [F1204, 2-chloro-5-((1R,3R)-2,2-dichloro-3-(4-fluoro-3-(trifluoromethyl)phenyl)cyclopropane-1-carboxamido)-N-(2,4-difluoro-3-(4-fluorobenzamido)phenyl)benzamide]",50 to 100,50 to 100
"COc1ccc(C(=O)Nc2c(F)ccc(NC(=O)c3cc(NC(=O)[C@H]4[C@H](c5ccc(F)c(C(F)(F)F)c5)C4(Cl)Cl)ccc3Cl)c2F)cc1 [F1205, 2-Chloro-5-((1R,3R)-2,2-dichloro-3-(4-fluoro-3-(trifluoromethyl)phenyl)cyclopropane-1-carboxamido)-N-(2,4-difluoro-3-(4-methoxybenzamido)phenyl)benzamide]",50 to 100,50 to 100
"O=C(Nc1c(F)ccc(NC(=O)c2cc(NC(=O)[C@H]3[C@H](c4ccc(F)c(C(F)(F)F)c4)C3(Cl)Cl)ccc2Cl)c1F)c1cccnc1 [F1206, N-(3-(2-Chloro-5-((1R,3R)-2,2-dichloro-3-(4-fluoro-3-(trifluoromethyl)phenyl)cyclopropane-1-carboxamido)benzamido)-2,6-difluorophenyl)nicotinamide]",50 to 100,50 to 100
"CC(=O)Nc1c(F)ccc(NC(=O)c2cc(NC(=O)[C@H]3[C@H](c4ccc(F)c(C(F)(F)F)c4)C3(Cl)Cl)ccc2Cl)c1F [F1231, N-(3-Acetamido-2,4-difluorophenyl)-2-chloro-5-((1R,3R)-2,2-dichloro-3-(4-fluoro-3-(trifluoromethyl)phenyl)cyclopropane-1-carboxamido)benzamide]",50 to 100,50 to 100
"O=C(Nc1c(F)ccc(NC(=O)c2cc(NC(=O)[C@H]3[C@H](c4ccc(F)c(C(F)(F)F)c4)C3(Cl)Cl)ccc2Cl)c1F)c1ccc(F)nc1 [F1258, N-(3-(2-Chloro-5-((1R,3R)-2,2-dichloro-3-(4-fluoro-3-(trifluoromethyl)phenyl)cyclopropane-1-carboxamido)benzamido)-2,6-difluorophenyl)-6-fluoronicotinamide]",50 to 100,50 to 100
"O=C(Nc1ccc(F)c(NC(=O)C(F)F)c1F)c1cc(NC(=O)[C@H]2[C@H](c3cc(Cl)cc(Cl)c3)C2(Cl)Cl)ccc1Cl [F1268, 2-Chloro-5-((1R,3R)-2,2-dichloro-3-(3,5-dichlorophenyl)cyclopropane-1-carboxamido)-N-(3-(2,2-difluoroacetamido)-2,4-difluorophenyl)benzamide]",50 to 100,50 to 100
